From patent US9598401B2, “Substituted heteroaryl compounds and methods of use thereof” (Sunshine Lake Pharma Co., Ltd., priority 2013, dated 2017)

Key:
[1] = target: serotonin transporter (Rattus norvegicus (Rat), UniProt P31652); assay: Inhibitory effect on [3H]5-HT uptake in rat synaptosome; type: biochemical; settings: rat brain synaptosomes, 37° C., 15 minutes, 0.1 μCi [3H]5-HT
Experimental: The synaptosomes (150 μg) prepared from the rat brain were incubated at 37° C. for 15 minutes with 0.1 μCi [^3H]5-HT in the absence or presence of the test compound or the reference compound in a buffer solution containing 106.2 mM NaCl, 4.5 mM KCl, 2.25 mM MgSO4, 1.08 mM NaH2PO4, 22.5 mM NaHCO3, 9.9 mM glucose, 9 μM EGTA and 45 μM ascorbic acid (pH 7.4).
Inhibition of serotonin transporter in rat synaptosome was measured by the concentrations of [^3H]5-HT.

[2] = target: dopamine D2S receptor (Homo sapiens (Human), UniProt P14416); assay: Affinity for human dopamine D2S receptor ([3H]methyl-spiperone binding); settings: 0.3 nM [3H]methyl-spiperone, cell membrane homogenates, 22° C., 60 minutes
dopamine D2S receptor, sequence (P14416 other isoform, or with tags, fused parts or gaps): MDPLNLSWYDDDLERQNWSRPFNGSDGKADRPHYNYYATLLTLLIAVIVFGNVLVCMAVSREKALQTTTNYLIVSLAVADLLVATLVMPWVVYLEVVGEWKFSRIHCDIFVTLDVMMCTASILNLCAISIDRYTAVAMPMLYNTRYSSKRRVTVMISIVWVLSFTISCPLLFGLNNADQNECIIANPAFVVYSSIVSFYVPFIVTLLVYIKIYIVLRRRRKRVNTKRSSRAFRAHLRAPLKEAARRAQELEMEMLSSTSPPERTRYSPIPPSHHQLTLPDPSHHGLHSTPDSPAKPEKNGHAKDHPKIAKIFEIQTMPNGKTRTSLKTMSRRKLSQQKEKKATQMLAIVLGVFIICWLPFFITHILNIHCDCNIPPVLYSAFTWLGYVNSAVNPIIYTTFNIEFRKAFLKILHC
Experimental: Cell membrane homogenates (24 μg protein) were incubated at 22° C. for 60 minutes with 0.3 nM [3H]methyl-spiperone in the absence or presence of the test compound in a buffer solution containing 50 mM Tris-HCl (pH 7.4), 120 mM NaCl, 5 mM KCl, 5 mM MgCl2 and 1 mM EDTA.
The non-specific binding value was determined by incubating the same mixture in the presence of 10 μM (+)butaclamol.
Following the incubation, the samples were filtered rapidly under vacuum through glass fiber filter (GF/B, Packard) presoaked with 0.3% PEI and rinsed several times with ice-cold 50 mM Tris-HCl using a 96-sample cell harvester (Unifilter, Packard). The filters were dried and the retained radioactivity was measured in a scintillation counter (Topcount, Packard) using a scintillation cocktail (Microscint 0, Packard).
The experimental results were expressed as a percent inhibition of the control radioligand specific binding, and Ki was the inhibition constant. The standard reference compound was (+)butaclamol, which was tested in each experiment at several concentrations to obtain a competition curve from which its IC50 was calculated, and then Ki value was calculated by ChengPrusoff equation.

[3] = target: 5-HT1A receptor (Homo sapiens (Human), UniProt P08908); assay: Affinity for human 5-HT1A receptor ([3H]8-OH-DPAT binding, HEK-293 cell homogenates); settings: read-out: Ki, binding affinity for 5-HT1A receptor; 0.3 nM [3H]8-OH-DPAT, human HEK-293 cell homogenates, 22° C., 60 minutes;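 note: Filter-retained radioactivity counted by scintillation, non-specific binding defined with 10 µM 8-OH-DPAT, Ki derived from percent inhibition of specific radioligand binding versus control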
5-HT1A receptor, sequence (P08908 whole entry): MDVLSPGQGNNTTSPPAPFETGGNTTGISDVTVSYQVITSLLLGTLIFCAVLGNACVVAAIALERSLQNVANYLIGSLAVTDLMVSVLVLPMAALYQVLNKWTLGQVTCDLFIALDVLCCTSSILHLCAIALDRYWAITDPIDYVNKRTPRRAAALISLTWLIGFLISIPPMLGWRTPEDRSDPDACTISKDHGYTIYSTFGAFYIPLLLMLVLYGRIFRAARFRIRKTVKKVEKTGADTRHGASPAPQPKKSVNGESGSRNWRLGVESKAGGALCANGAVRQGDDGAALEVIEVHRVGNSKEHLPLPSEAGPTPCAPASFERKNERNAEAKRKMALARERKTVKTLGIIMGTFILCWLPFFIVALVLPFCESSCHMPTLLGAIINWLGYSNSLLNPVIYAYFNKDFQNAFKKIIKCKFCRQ
Experimental: The non-specific binding value was determined by incubating the same mixture in the presence of 10 μM 8-OH-DPAT, which was used as the standard reference compound and tested in each experiment at several concentrations to obtain a competition curve.
Following the incubation, the samples were filtered rapidly under vacuum through glass fiber filter (GF/B, Packard) presoaked with 0.3% PEI and rinsed several times with ice-cold 50 mM Tris-HCl using a 96-sample cell harvester (Unifilter, Packard). The filters were dried and the retained radioactivity was measured in a scintillation counter (Topcount, Packard) using a scintillation cocktail (Microscint 0, Packard). The experimental results were expressed as a percent inhibition of the control radioligand specific binding, and Ki was the inhibition constant.

serotonin transporter, sequence (P31652 whole entry): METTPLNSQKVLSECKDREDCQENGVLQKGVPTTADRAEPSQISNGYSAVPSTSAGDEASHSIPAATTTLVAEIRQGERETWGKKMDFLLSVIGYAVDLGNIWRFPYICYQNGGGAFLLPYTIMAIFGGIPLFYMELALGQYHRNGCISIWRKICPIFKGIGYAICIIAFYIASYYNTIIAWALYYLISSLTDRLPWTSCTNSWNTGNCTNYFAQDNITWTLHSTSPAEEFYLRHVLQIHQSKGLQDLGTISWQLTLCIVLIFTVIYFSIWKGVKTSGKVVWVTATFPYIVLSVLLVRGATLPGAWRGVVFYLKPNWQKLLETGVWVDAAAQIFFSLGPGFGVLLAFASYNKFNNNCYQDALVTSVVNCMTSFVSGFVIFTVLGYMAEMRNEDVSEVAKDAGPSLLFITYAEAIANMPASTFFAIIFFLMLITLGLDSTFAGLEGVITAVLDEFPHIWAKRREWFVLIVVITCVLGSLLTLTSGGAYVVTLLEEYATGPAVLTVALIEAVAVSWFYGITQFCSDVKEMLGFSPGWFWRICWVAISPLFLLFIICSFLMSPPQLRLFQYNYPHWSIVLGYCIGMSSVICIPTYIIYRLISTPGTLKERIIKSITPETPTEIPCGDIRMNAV

Row | SMILES | IC50 [1] | Ki [2] | Ki [3]
1 | Cc1nc(N2CCN(CCCc3c[nH]c4ccc(F)cc34)CC2)sc1C#N [Example 46, 2-(4-(3-(5-Fluoro-1H-indol-3-yl)propyl)piperazin-1-yl)-4-methylthiazole-5-carbonitrile] | 18 nM | > 1000 nM | 4.2 nM
2 | NC(=O)c1ccnc(N2CCN(CCCc3c[nH]c4ccc(F)cc34)CC2)n1 [Example 29, 2-(4-(3-(5-Fluoro-1H-indol-3-yl)propyl)piperazin-1-yl)pyrimidine-4-carboxamide] | 1.4 nM | 230 nM | 12 nM
3 | COc1cc(OC)nc(N2CCN(CCCCc3c[nH]c4ccc(F)cc34)CC2)n1 [Example 4, 3-(4-(4-(4,6-Dimethoxypyrimidin-2-yl)piperazin-1-yl)butyl)-5-fluoro-1H-indole] | 6.4 nM | 110 nM | 2.8 nM
4 | N#Cc1ccc2[nH]cc(CCCN3CCN(c4nccc(C#N)n4)CC3)c2c1 [Example 26, 3-(3-(4-(4-Cyanopyrimidin-2-yl)piperazin-1-yl)propyl)-1H-indole-5-carbonitrile] | 2.6 nM | 190 nM | 8 nM
5 | N#Cc1ccc2[nH]cc(CCCCN3CCN(c4nccc(C(N)=O)n4)CC3)c2c1 [Example 28, 2-(4-(4-(5-Cyano-1H-indol-3-yl)butyl)piperazin-1-yl)pyrimidine-4-carboxamide] | 1 nM | 310 nM | 10 nM
6 | CCOC(=O)c1sc(N2CCN(CCCc3c[nH]c4ccc(F)cc34)CC2)nc1C [Example 38, Ethyl 2-(4-(3-(5-fluoro-1H-indol-3-yl)propyl)piperazin-1-yl)-4-methylthiazole-5-carboxylate] | 11 nM | 270 nM | 0.27 nM
7 | NC(=O)c1ccnc(N2CCN(CCCCc3c[nH]c4ccc(F)cc34)CC2)n1 [Example 27, 2-(4-(4-(5-Fluoro-1H-indol-3-yl)butyl)piperazin-1-yl)pyrimidine-4-carboxamide] | 2.7 nM | > 1000 nM | 60 nM
